“And” between values parts separate entries of the source, which are not always exact repeats. Identical values can stand only once. Like-named read-outs stand apart in the source and are kept apart here.
Assays:
[1] = test system: Enterococcus faecium EFM.14 (ATCC 6569); format: cell-based
Description: (§1) Compounds according to Formula I were tested for antimicrobial activity against a panel of organisms. Aerobic organisms, Staphylococcus aureus, Enterococcus faecalis and E. faecium, were tested by broth microdilution according to Clinical and Laboratory Standards Institute (CLSI) document M7-A7 (Clinical and Laboratory Standards Institute. Methods for Dilution Antimicrobial Susceptibility Tests for Bacteria that Grow Aerobically; Approved Standard—Seventh Edition. CLSI document M7-A7 [ISBN 1-56238-587-9]. Clinical and Laboratory Standards Institute, 940 West Valley Road, Suite 1400, Wayne, Pa. 19087-1898 USA, 2006) with modifications as described below. Mueller Hinton Broth (MHBc) was supplemented with 50 mg/L calcium (equivalent to human physiological levels of calcium) and assay plates were incubated 18-20 hours at 37° C. with aeration (200 rpm).
(§2) In all cases the final concentration of dimethyl sulfoxide incubated with cells is less than or equal to 1%. For minimum inhibitory concentration (MIC) calculations, 2-fold dilutions of compounds were added to wells of a microtiter plate containing 5×10^5 bacteria in a final volume of 100 μL of media. Following incubation, (18-20 hours at 37° C. with aeration at 200 rpm) growth was confirmed visually by placing plates over a viewing apparatus (stand with a mirror underneath) and then the optical density (OD600) was measured using a SpectraMax 340PC^384 plate reader. Growth was defined as turbidity that could be detected with the naked eye or achieving minimum OD600of 0.1. MIC values (in μg/mL) were defined as the lowest concentration producing no visible turbidity.

[2] = test system: Enterococcus faecium EFM.384, Daptomycin resistant mutant (14-A); format: cell-based; settings: MHBc with 50 mg/L calcium, 18-20 hours at 37° C.
Description: as §1, §2

[3] = test system: Staphylococcus aureus SAU.278, Daptomycin resistant mutant (D10); format: cell-based; settings: MHBc with 50 mg/L calcium, 18-20 hours at 37° C.
Description: as §1, §2

[4] = test system: Enterococcus faecalis EFS.312, Daptomycin resistant mutant (EFA); format: cell-based; settings: MHBc with 50 mg/L calcium, 18-20 hours at 37° C.
Description: as §1, §2

[5] = test system: Staphylococcus aureus SAU.399 (ATCC 43300), Methicillin and Oxacillin Resistant; format: cell-based; settings: ATCC 43300
Description: as §1, §2

[6] = test system: Enterococcus faecalis EFS.201 (ATCC 49452); format: cell-based
Description: as §1, §2

[7] = test system: Staphylococcus aureus SAU.42 (ATCC 29213); format: cell-based
Description: as §1, §2

[8] = MHBc with 50 mg/L calcium, 18-20 hours at 37° C.

CCCC1CCC(c2ccc(C(=O)N[C@@H](Cc3c[nH]c4ccccc34)C(=O)N[C@H](CC(N)=O)C(=O)N[C@@H](CC(=O)O)C(=O)N[C@@H]3C(=O)NCC(=O)N[C@@H](CCCN)C(=O)N[C@@H](CC(=O)O)C(=O)N[C@H](C)C(=O)N[C@@H](CC(=O)O)C(=O)NCC(=O)N[C@H](CO)C(=O)N[C@@H]([C@H](C)CC(=O)O)C(=O)N[C@@H](CC(=O)c4ccccc4N)C(=O)O[C@@H]3C)cc2)CC1 (single isomer, unassigned) [53 isomer I]
C. diff MIC90 (Clostridium difficile): 1 µg/mL | Efm14 MIC ([1]; ATCC 6569): 0.25 µg/mL | Efm384 MIC [2]: 2 µg/mL and 1 µg/mL | Sa278 MIC [3]: 0.25 µg/mL and 0.5 µg/mL | Efs312 MIC [4]: 2 µg/mL | Sa399 MIC [5]: 0.125 µg/mL

C[C@H](CC(=O)O)[C@@H]1NC(=O)[C@@H](CO)NC(=O)CNC(=O)[C@H](CC(=O)O)NC(=O)[C@@H](C)NC(=O)[C@H](CC(=O)O)NC(=O)[C@H](CCCN)NC(=O)CNC(=O)[C@@H](NC(=O)[C@H](CC(=O)O)NC(=O)[C@@H](CC(N)=O)NC(=O)[C@H](Cc2c[nH]c3ccccc23)NC(=O)c2ccc(-c3ccc(Cl)cc3)cc2)[C@@H](C)OC(=O)[C@H](CC(=O)c2ccccc2N)NC1=O [Compound 68]
C. diff MIC90 (Clostridium difficile): 16 µg/mL | Efs201 MIC ([6]; ATCC 49452): 16 µg/mL | Efm14 MIC ([1]; ATCC 6569): 16 µg/mL | Efm384 MIC [2]: >32 µg/mL | Sa278 MIC [3]: 32 µg/mL | Efs312 MIC [4]: >32 µg/mL | Sa42 MIC ([7]; ATCC 29213): 4 µg/mL

CCCCCCCCCOc1ccc(C(=O)N[C@@H](Cc2c[nH]c3ccccc23)C(=O)N[C@H](CC(N)=O)C(=O)N[C@@H](CC(=O)O)C(=O)N[C@@H]2C(=O)NCC(=O)N[C@@H](CCCN)C(=O)N[C@@H](CC(=O)O)C(=O)N[C@H](C)C(=O)N[C@@H](CC(=O)O)C(=O)NCC(=O)N[C@H](CO)C(=O)N[C@@H]([C@H](C)CC(=O)O)C(=O)N[C@@H](CC(=O)c3ccccc3N)C(=O)O[C@@H]2C)cc1 [Compound 37]
C. diff MIC90 (Clostridium difficile): 1 µg/mL | Efs201 MIC [6, 8]: 0.5 µg/mL | Efm14 MIC [1, 8]: 0.5 µg/mL | Efm384 MIC [2]: 2 µg/mL | Sa278 MIC [3]: 0.25 µg/mL | Efs312 MIC [4]: 2 µg/mL | Sa42 MIC [7, 8]: 0.25 µg/mL

CC(C)C1CCC(CCCC(=O)N[C@@H](Cc2c[nH]c3ccccc23)C(=O)N[C@H](CC(N)=O)C(=O)N[C@@H](CC(=O)O)C(=O)N[C@@H]2C(=O)NCC(=O)N[C@@H](CCCN)C(=O)N[C@@H](CC(=O)O)C(=O)N[C@H](C)C(=O)N[C@@H](CC(=O)O)C(=O)NCC(=O)N[C@H](CO)C(=O)N[C@@H]([C@H](C)CC(=O)O)C(=O)N[C@@H](CC(=O)c3ccccc3N)C(=O)O[C@@H]2C)CC1 (stereo partly drawn) [Compound 21]
Efs201 MIC ([6]; ATCC 49452): 0.25 µg/mL | Sa278 MIC [3]: 2 µg/mL | Efs312 MIC [4]: 32 µg/mL | Sa42 MIC ([7]; ATCC 29213): 0.063 µg/mL | Sa399 MIC [5]: 1 µg/mL

CCCCCC1CCC([C@H]2CC[C@H](C(=O)N[C@@H](Cc3c[nH]c4ccccc34)C(=O)N[C@H](CC(N)=O)C(=O)N[C@@H](CC(=O)O)C(=O)N[C@@H]3C(=O)NCC(=O)N[C@@H](CCCN)C(=O)N[C@@H](CC(=O)O)C(=O)N[C@H](C)C(=O)N[C@@H](CC(=O)O)C(=O)NCC(=O)N[C@H](CO)C(=O)N[C@@H]([C@H](C)CC(=O)O)C(=O)N[C@@H](CC(=O)c4ccccc4N)C(=O)O[C@@H]3C)CC2)CC1 (stereo partly drawn) [Compound 20]
Efs201 MIC ([6]; ATCC 49452): 0.5 µg/mL | Sa278 MIC [3]: 8 µg/mL | Efs312 MIC [4]: 4 µg/mL | Sa42 MIC ([7]; ATCC 29213): 0.5 µg/mL | Sa399 MIC [5]: 2 µg/mL

C[C@H](CC(=O)O)[C@@H]1NC(=O)[C@@H](CO)NC(=O)CNC(=O)[C@H](CC(=O)O)NC(=O)[C@@H](C)NC(=O)[C@H](CC(=O)O)NC(=O)[C@H](CCCN)NC(=O)CNC(=O)[C@@H](NC(=O)[C@H](CC(=O)O)NC(=O)[C@@H](CC(N)=O)NC(=O)[C@H](Cc2c[nH]c3ccccc23)NC(=O)CCCCCCc2ccccc2)[C@@H](C)OC(=O)[C@H](CC(=O)c2ccccc2N)NC1=O [Compound 47]
C. diff MIC90 (Clostridium difficile): 8 µg/mL | Efm14 MIC ([1]; ATCC 6569): >32 µg/mL | Efm384 MIC [2]: >32 µg/mL | Sa278 MIC [3]: >32 µg/mL | Efs312 MIC [4]: >32 µg/mL | Sa399 MIC [5]: 16 µg/mL

From patent US20150337013A1, “NOVEL ANTIBACTERIAL AGENTS FOR THE TREATMENT OF GRAM POSITIVE INFECTIONS” (priority 2008, published 2015)
